From ChEMBL document CHEMBL1201862, “PubChem BioAssay data set” (2004)
Activity calls are given as the source filed them.

How the values were obtained:
[1] = target: Induced myeloid leukemia cell differentiation protein Mcl-1 (Homo sapiens, UniProt Q07820); type: functional
[2] = target: T1, Estrogen receptor (Homo sapiens, UniProt P03372);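 also: potency for inhibiting coactivator peptide recruitment to the receptor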
T1 sequence (P03372 whole entry): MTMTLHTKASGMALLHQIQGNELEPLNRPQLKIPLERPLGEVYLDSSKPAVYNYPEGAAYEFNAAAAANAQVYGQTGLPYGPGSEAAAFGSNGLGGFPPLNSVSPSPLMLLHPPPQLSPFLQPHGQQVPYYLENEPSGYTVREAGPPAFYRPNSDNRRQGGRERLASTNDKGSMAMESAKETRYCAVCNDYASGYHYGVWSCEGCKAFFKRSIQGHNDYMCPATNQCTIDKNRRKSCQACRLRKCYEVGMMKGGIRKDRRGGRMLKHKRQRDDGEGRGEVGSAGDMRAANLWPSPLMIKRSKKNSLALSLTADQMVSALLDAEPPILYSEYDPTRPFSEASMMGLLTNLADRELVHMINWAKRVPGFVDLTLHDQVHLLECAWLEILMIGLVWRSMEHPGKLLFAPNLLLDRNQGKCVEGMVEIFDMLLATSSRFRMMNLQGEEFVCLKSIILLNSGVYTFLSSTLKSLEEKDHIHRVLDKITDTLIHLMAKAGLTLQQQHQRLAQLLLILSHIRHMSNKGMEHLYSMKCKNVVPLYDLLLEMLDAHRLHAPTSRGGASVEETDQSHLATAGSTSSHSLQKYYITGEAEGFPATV

[3] = target: Nonstructural protein 1 (Influenza A virus, UniProt Q194T2); type: functional, Influenza A virus (A/California/07/2009(H1N1))
Sequence of Nonstructural protein 1 (Q194T2 whole entry): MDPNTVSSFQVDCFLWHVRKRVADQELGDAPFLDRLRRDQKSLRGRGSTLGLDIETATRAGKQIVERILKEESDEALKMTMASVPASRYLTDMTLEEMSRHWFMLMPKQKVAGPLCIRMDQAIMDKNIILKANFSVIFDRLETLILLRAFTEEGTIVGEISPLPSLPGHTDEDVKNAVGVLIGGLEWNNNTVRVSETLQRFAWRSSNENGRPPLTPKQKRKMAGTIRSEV

[4] = target: Cytochrome P450 2C9 (Homo sapiens, UniProt P11712)
Sequence of Cytochrome P450 2C9 (P11712 whole entry): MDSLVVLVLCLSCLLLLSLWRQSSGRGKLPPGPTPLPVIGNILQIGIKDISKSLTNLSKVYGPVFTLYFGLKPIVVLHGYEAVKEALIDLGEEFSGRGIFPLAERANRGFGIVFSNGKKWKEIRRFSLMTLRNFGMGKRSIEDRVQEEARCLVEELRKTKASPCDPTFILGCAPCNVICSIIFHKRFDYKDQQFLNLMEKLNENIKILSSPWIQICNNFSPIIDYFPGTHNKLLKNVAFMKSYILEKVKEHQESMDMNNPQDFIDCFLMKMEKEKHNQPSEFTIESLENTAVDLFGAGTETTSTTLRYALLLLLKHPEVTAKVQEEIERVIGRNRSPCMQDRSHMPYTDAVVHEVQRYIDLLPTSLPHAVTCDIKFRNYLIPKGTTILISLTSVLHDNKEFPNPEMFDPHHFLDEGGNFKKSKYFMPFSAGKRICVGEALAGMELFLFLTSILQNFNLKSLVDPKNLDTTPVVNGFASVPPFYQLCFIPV

[5] = target: Cytochrome P450 2C19 (Homo sapiens, UniProt P33261); assay: Cytochrome panel assay with activity outcomes. Panel member name: p450-cyp2c19 Compounds with AC50 equal or less than 10 uM are considered active; type: functional; conditions: read-out: AC50
Sequence of Cytochrome P450 2C19 (P33261 whole entry): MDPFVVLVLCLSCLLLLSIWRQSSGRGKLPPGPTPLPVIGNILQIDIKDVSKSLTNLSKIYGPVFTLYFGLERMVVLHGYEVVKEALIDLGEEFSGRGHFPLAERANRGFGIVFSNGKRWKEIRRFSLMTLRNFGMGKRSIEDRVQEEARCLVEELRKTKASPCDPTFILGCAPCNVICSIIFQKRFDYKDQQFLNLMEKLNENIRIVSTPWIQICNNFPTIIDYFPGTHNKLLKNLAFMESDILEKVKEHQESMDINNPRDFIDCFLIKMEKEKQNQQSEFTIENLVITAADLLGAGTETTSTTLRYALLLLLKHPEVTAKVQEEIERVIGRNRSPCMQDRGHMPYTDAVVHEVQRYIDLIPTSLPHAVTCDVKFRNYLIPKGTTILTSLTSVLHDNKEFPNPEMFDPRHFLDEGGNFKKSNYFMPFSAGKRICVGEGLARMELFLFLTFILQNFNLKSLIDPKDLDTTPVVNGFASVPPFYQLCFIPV

[6] = target: Cytochrome P450 3A4 (Homo sapiens, UniProt P08684);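 also: CYP3A4 tested as one member of a cytochrome P450 panel screen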
Sequence of Cytochrome P450 3A4 (P08684 whole entry): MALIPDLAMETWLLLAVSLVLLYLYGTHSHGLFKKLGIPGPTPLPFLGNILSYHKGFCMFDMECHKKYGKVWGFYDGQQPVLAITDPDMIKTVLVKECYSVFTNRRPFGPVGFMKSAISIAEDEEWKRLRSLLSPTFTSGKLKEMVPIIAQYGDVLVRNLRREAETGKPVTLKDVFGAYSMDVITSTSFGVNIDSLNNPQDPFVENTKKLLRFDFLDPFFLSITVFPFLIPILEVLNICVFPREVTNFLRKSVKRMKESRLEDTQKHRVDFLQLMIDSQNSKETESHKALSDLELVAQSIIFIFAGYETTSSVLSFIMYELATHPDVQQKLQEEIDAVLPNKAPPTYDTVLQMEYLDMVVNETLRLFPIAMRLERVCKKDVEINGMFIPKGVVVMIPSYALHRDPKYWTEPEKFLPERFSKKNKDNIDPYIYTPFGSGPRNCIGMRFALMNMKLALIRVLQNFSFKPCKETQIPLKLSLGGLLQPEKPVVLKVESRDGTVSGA

[7] = viability of uninfected HEp-2 cells – cell-based, HTS, cytotoxicity control for RSV inhibitor project, dose response (AID 2410); type: functional; conditions: human respiratory syncytial virus
[8] = target: T2, Streptokinase A (Streptococcus pyogenes serotype M1, UniProt P10520); assay: viability-normalized secreted streptokinase activity reduction – plasminogen activation absorbance, OD405, dose response (AID 1914); type: functional, Streptococcus pyogenes M1 GAS;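 also: secreted streptokinase activity via plasminogen activation per viability signal from cell pellet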
T2 sequence (P10520 whole entry): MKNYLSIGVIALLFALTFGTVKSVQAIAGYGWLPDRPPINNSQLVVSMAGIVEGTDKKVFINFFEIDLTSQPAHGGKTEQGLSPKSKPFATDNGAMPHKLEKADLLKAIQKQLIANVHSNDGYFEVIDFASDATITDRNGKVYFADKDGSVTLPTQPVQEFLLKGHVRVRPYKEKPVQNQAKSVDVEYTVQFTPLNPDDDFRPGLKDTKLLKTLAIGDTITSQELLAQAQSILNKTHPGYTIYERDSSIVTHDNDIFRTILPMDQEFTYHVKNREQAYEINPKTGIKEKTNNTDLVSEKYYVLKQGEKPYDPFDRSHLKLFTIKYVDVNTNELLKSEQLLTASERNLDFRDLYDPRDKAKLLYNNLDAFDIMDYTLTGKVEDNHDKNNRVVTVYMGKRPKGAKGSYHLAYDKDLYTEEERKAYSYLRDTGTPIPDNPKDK

[9] = tested on: Streptococcus sp. 'group A'; assay: Streptococcus pyogenes SK(-)GAS viability under kanamycin – luminescence, BacTiterGlo, confirmation, counter-screen for streptokinase expression inhibitor project, dose response (AID 1900); type: functional, organism-based
[10] = tested on: Streptococcus; assay: GAS UMAA2166 growth inhibition – luminescence, BacTiterGlo, counter-screen for streptokinase expression inhibitor project, dose response (AID 1915); type: functional, organism-based;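 also: potency for reduction of bacterial viability or growth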
[11] = NIH3T3 cell viability loss – ATP luminescence, mouse fibroblasts, counter-screen, dose response (AID 2010); type: functional, cell-based;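 also: cells exposed to compound for about 90 hours before reading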
[12] = target: T3, Heat shock factor protein 1 (Mus musculus, UniProt P38532); assay: enhancement of HSF1-driven luciferase signal – cell-based, NIH3T3, luminescence, dose retest, confirmation (AID 435004); type: functional;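 also: stress induced by proteasome inhibitor MG132 added 30 min after compound; luciferase reporter driven by HSF1 response element in NIH3T3 cells; actives raise luminescence as potentiators of the MG132 stress response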
T3 sequence (P38532 whole entry): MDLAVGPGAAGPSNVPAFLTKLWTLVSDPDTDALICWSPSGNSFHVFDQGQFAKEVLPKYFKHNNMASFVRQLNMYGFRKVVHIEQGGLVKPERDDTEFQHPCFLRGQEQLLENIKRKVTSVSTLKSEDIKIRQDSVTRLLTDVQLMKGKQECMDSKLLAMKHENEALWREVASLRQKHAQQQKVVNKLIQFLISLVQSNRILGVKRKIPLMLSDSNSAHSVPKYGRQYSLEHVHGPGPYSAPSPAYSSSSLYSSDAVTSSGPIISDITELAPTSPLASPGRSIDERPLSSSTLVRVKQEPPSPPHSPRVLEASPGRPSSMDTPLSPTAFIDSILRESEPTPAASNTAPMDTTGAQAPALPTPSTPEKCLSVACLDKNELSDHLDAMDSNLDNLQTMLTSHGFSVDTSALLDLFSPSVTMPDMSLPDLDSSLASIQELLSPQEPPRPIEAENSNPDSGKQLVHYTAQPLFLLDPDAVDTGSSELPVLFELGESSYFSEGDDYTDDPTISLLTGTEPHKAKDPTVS

[13] = Trypanosoma cruzi growth suppression in host cells – NIH3T3 host cells, beta-gal luminescence, confirmation (AID 2044); type: functional, cell-based;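 also: intracellular parasites grown in NIH/3T3 mouse fibroblasts as host cells; luminescent beta-galactosidase reporter signal from transgenic T. cruzi replicating inside host cells; inhibitors lower the luminescence signal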
[14] = tested on: INS1; assay: INS-1E survival protection against cytokine death – cell-based, luminescence, retest, dose response (AID 449756); type: functional; conditions: Rattus norvegicus;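 also: cell death triggered by IL-1 beta plus TNF-alpha plus IFN-gamma mixture; protective hits raise ATP signal compared with cytokine alone wells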
[15] = target: T4, Long-chain-fatty-acid--AMP ligase FadD28 (Mycobacterium tuberculosis, UniProt P9WQ59); assay: Fluorescence polarization aasay to screen for inhibitors that compete for the binding of FadD28 to a bisubstrate Measured in Biochemical System Using Plate Reader - 2147-01_Inhibitor_Dose_CherryPick_Activity.; type: functional, Mycobacterium tuberculosis H37Rv
T4 sequence (P9WQ59 whole entry): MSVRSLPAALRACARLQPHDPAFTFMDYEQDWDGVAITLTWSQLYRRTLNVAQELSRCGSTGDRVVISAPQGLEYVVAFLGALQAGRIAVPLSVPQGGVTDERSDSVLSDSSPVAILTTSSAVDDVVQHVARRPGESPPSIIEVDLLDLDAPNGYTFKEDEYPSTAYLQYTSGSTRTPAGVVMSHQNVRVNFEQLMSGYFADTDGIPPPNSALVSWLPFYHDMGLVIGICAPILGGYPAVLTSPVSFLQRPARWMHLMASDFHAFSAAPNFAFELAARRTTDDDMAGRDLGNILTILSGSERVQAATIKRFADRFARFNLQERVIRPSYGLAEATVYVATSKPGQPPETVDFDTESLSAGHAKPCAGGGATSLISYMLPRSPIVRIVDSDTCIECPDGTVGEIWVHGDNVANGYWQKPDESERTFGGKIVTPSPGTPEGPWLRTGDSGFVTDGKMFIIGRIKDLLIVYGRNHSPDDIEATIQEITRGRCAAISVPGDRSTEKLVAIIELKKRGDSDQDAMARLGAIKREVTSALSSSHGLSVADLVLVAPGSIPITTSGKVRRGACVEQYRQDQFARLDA

[16] = target: Cytochrome P450 2D6 (Homo sapiens, UniProt P10635);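 also: CYP2D6 member of a cytochrome P450 panel assay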
Sequence of Cytochrome P450 2D6 (P10635 whole entry): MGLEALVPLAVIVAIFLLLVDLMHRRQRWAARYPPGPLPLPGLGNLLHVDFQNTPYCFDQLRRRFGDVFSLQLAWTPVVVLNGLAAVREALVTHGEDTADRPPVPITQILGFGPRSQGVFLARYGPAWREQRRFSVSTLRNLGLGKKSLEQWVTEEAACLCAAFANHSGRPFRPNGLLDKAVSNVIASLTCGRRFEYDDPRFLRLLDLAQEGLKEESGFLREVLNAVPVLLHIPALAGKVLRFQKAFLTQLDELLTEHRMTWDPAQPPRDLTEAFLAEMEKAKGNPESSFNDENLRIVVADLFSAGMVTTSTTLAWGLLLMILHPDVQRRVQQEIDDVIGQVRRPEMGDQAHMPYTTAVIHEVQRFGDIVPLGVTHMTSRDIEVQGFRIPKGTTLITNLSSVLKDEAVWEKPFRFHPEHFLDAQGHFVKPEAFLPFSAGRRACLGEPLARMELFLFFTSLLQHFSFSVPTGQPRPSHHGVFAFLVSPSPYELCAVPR

[17] = target: T5, Cytochrome P450 1A2 (Homo sapiens, UniProt P05177);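 also: PubChem cytochrome P450 panel assay, CYP1A2 panel member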
T5 sequence (P05177 whole entry): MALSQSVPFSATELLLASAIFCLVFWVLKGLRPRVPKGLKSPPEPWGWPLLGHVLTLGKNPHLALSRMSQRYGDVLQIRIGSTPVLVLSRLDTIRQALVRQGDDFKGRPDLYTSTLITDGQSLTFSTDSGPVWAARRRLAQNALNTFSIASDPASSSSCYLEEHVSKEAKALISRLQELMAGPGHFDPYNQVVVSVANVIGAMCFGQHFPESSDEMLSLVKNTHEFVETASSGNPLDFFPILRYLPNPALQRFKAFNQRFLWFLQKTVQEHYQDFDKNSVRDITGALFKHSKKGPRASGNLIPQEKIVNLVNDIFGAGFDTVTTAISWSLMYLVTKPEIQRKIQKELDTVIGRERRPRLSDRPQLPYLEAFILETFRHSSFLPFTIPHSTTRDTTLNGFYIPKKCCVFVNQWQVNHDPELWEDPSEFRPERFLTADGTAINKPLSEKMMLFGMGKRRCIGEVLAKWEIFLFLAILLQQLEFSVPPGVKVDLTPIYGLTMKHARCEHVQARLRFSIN

Sequence of Induced myeloid leukemia cell differentiation protein Mcl-1 (Q07820 whole entry): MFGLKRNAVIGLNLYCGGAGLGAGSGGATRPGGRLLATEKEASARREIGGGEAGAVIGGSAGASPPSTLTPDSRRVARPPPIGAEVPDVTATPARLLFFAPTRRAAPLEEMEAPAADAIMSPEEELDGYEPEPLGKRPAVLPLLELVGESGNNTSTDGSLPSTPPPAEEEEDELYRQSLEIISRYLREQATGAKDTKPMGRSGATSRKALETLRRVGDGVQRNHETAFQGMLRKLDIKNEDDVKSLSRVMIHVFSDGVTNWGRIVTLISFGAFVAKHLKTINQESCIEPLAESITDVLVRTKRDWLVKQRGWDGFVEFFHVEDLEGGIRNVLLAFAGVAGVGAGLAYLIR

In the case of `O=C1NN(c2ccc(Cl)c(Cl)c2)C(=O)/C1=C/c1cccc(OC(=O)c2cccs2)c1`, the IC50 [1] is reported as 3.81 µM (active) and the IC50 [2] is reported as > 50 µM (not active).
In the case of `COc1cc(OC)c2c(-c3ccccc3)cc(=O)oc2c1C(CCN1CCCCC1)c1ccc(N(C)C)cc1` (stereo unspecified), the IC50 [3] is reported as 11.9 µM (active).
With `O=C(c1ccc(Cl)cc1)N1CCN(c2cc(O)nnc2-c2ccccc2)CC1` the AC50 [4] was 0.355 µM (inconclusive), the AC50 [5] was 1.41 µM (inconclusive) and the AC50 [6] was “inconclusive”.
For `CC(C)(C)c1nnc(NC(=O)c2cc(-c3ccccc3)nc3ccccc23)s1`, the CC50 [7] was 14.1 µM (active), the EC50 [8] was > 150 µM (not active) and the EC50 [9] was 9.69 µM (active). For the same molecule, the AC50 [6] was “inconclusive” and the EC50 [10] was 49.3 µM (active).
For `N=c1c2c(-c3ccccc3)c(-c3ccccc3)n(Cc3ccco3)c2ncn1CCCN1CCOCC1`, the EC50 [11] was > 60 µM (not active), the EC50 [12] was > 260 µM (inactive) and the EC50 [13] was 1.49 µM (active). For the same molecule, the AC50 [14] was 14.3 µM (active) and the AC50 [15] was 77.3 µM (active).
With `Cc1c(C2CCN(CCc3ccccc3)CC2)noc1-c1ccc(Cl)cc1` the AC50 [16] was 1.58 µM (inconclusive), the AC50 [17] was 25.1 µM (inconclusive) and the AC50 [6] was “inconclusive”.
For `O=C1NC(=S)N(C2CC2)C(=O)/C1=C/NNC(=O)c1ccccc1Cl`, the IC50 [3] was 20.4 µM (active).
In the case of `COc1cccc2cc(-c3cn4ccc(C)cc4n3)c(=O)oc12`, the IC50 [2] is reported as 7.85 µM (active).
